How the values were obtained:
hTLR9 = target: T1, hTLR9 (Homo sapiens, UniProt Q9NR96); assay: HEK293-Blue-hTLR-9 cells assay; format: cell-based; details: HEK293-Blue-hTLR9 cells, ODN2006 stimulation, 20 hrs, SEAP reporter; read-out: HEK/hTLR9 IC50
T1 sequence (Q9NR96 26-1032): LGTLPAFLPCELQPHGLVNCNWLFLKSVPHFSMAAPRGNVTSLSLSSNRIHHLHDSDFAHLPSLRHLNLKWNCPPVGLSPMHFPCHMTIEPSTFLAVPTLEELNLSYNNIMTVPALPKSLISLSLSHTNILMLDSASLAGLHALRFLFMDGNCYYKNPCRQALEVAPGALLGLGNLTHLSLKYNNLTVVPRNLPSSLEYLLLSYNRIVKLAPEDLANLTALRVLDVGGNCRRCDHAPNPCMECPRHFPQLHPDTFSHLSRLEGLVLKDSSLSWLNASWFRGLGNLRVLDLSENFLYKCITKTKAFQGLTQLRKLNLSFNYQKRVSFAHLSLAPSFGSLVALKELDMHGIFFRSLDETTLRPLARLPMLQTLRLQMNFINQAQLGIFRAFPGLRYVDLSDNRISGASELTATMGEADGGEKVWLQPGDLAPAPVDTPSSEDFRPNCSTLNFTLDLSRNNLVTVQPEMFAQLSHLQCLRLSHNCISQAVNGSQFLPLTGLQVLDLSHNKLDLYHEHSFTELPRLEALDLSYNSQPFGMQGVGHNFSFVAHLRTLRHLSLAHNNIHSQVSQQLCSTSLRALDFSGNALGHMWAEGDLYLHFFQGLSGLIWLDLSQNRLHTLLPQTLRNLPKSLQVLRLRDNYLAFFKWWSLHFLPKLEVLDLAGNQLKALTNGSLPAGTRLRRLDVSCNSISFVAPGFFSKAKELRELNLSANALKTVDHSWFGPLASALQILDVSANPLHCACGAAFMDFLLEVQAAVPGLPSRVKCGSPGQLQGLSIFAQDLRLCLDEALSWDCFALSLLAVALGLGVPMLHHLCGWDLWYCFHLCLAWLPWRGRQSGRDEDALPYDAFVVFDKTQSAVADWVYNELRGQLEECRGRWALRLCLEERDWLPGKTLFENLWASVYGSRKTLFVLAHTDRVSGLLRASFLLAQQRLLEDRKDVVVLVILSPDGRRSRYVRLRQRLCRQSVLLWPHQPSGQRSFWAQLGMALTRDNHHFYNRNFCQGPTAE
Description: HEK293-Blue-hTLR-9 cells assay: A stable HEK293-Blue-hTLR-9 cell line was purchased from InvivoGen (Cat. #: hkb-htlr9, San Diego, California, USA). These cells were originally designed for studying the stimulation of human TLR9 by monitoring the activation of NF-κB. A SEAP (secreted embryonic alkaline phosphatase) reporter gene was placed under the control of the IFN-β minimal promoter fused to five NF-κB and AP-1-binding sites. The SEAP was induced by activating NF-κB and AP-1 via stimulating HEK-Blue hTLR9 cells with TLR9 ligands. Therefore the reporter expression was declined by TLR9 antagonist under the stimulation of a ligand, such as ODN2006 (Cat. #: tlrl-2006-1, Invivogen, San Diego, California, USA), for incubation of 20 hrs. The cell culture supernatant SEAP reporter activity was determined using QUANTI-Blue™ kit (Cat. #: rep-qb1, Invivogen, San Diego, California, USA) at a wavelength of 640 nm, a detection medium that turns purple or blue in the presence of alkaline phosphatase.
HEK293-Blue-hTLR9 cells were incubated at a density of 250,000˜450,000 cells/mL in a volume of 170 μL in a 96-well plate in Dulbecco's Modified Eagle's medium (DMEM) containing 4.5 g/L glucose, 50 U/mL penicillin, […], 2 mM L-glutamine, 10% (v/v) heat-inactivated fetal bovine serum with addition of 20 μL test compound in a serial dilution in the presence of final DMSO at 1% and 10 μL of 20 uM ODN2006 in above DMEM, perform incubation under 37° C. in a CO2 incubator for 20 hrs. Then 20 μL of the supernatant from each well was incubated with 180 μL Quanti-blue substrate solution at 37° C. for 2 h and the absorbance was read at 620-655 nm using a spectrophotometer. The signaling pathway that TLR9 activation leads to downstream NF-κB activation has been widely accepted, and therefore similar reporter assay was modified for evaluating TLR9 antagonist.

CYP2C9 = target: T2, CYP2C9 (Homo sapiens, UniProt P11712); assay: CYP inhibition assay in human liver microsome, CYP2C9; format: in vitro ADME; details: percentage inhibition, substrate Diclofenac 5 μM, <0: not or weak inhibitor
T2 construct: tissue BD-Gentest 452117; host or cells: human liver microsomes
T2 sequence (P11712 whole entry): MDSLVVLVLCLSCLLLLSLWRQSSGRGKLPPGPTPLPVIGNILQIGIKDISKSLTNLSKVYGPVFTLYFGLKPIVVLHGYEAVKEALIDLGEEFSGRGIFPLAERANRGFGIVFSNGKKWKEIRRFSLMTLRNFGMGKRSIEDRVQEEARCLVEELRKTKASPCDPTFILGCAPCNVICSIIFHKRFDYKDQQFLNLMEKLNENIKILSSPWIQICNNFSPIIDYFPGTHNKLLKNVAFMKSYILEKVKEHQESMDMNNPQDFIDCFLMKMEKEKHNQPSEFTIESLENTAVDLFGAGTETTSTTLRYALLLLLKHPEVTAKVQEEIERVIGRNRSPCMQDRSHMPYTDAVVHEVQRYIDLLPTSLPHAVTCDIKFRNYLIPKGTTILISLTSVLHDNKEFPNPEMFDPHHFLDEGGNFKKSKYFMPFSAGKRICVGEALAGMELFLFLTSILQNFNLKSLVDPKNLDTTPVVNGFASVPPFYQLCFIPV
Protocol: (§1) This is a high throughput screening assay used for assessment of reversible inhibition of CYP2C9, CYP2D6, and CYP3A4 activity of test compounds in human liver microsome (HLM) in early discovery stage.
(§2) Procedure 10 mM DMSO stock solutions of test compounds were diluted in DMSO to generate 2 mM intermediate stock solution. 250 nL of intermediate stock solution were transferred in duplicate into 3 separate 384 well microtitre plates (assay-ready plates). A mixture of HLM and each substrate was made up. 45 μL of HLM substrate mix was then transferred to each well of an assay ready plate and mixed. The negative (solvent) and positive controls (standard inhibitor for each CYP) were included in each assay ready plate. The assay ready plate was warmed to 37° C. in an incubator over 10 minutes. 5 μL pre-warmed NADPH regenerating system was added to each incubation well to start the reaction. Final incubation volume was 50 μL. The assay plate then was placed back in the 37° C. incubator. After incubation (10 minutes for CYP2D6) for 5 minutes, incubates were quenched by addition of 50 μL 100% acetonitrile containing internal standards (400 ng/mL 13C6-4′-OH-Diclofenac, 20 ng/mL D3-Dextrorphan and 20 ng/mL D4-1′OH-Midazolam). The supernatants were collected for RapidFire/MS/MS analysis.
(§3) RapidFire online solid phase extraction/sample injection system (Agilent) coupled with API4000 triple quadrupole mass spectrometer (AB Sciex) were used for sample analysis. The mobile phase composed of acetonitrile and water supplemented with 0.1% formic acid. A C4 solid phase extraction cartridge is used for sample separation. MS detection is achieved in positive ion MRM mode.
(§4) Data analysis Peak areas for substrate, metabolite and internal standard are determined using the RapidFire integrator software (version 3.6.12009.12296). Peak area ratios (PAR) of metabolite and internal standard (stable-labelled metabolite) are then calculated. The measurement window for each experiment is then defined: PAR (0% activity)=average PAR for all incubations containing concentrated inhibitor; Par (100% activity)=average PAR for all incubations containing no inhibitor (DMSO controls); % Activity (test inhibitor)=[PAR (test inhibitor)-PAR (0% activity)]/[PAR (100% activity)-PAR (0% activity)]; % Inhibition (test inhibitor)=100-% Activity (test inhibitor).

CYP3A4 = target: T3, CYP3A4 (Homo sapiens, UniProt P08684); assay: CYP inhibition assay in human liver microsome, CYP3A4; format: in vitro ADME; details: percentage inhibition, substrate Midazolam 5 μM, <0: not or weak inhibitor
T3 construct: tissue BD-Gentest 452117; host or cells: human liver microsomes
T3 sequence (P08684 whole entry): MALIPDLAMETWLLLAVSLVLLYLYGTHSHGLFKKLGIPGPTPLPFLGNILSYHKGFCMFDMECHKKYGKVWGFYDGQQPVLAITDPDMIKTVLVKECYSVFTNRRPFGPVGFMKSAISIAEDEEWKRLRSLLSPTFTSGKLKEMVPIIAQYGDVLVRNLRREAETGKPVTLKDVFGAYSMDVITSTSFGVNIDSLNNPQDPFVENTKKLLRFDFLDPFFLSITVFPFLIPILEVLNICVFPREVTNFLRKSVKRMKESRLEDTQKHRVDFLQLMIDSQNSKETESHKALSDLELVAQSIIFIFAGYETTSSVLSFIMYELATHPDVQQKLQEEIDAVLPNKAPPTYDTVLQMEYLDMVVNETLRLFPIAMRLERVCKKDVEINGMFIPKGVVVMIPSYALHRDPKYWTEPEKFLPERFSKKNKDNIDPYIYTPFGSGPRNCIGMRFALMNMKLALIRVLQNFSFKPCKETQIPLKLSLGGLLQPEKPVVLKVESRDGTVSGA
Protocol: as §1, §2, §3, §4

Structure (SMILES) | IC50 (hTLR9) [µM] | CYP (%) 2C9 (CYP2C9) [%] | CYP (%) 3A4 (CYP3A4) [%]
[2H]c1ccc2c(N3C[C@H](CN4CC5(C4)OCc4cc(N6CC(N)C6)cnc45)O[C@H](C)C3)ccc(C#N)c2n1 [Example 20, 5-[(2S,6R)-2-[[3-(3-aminoazetidin-1-yl)spiro[5H-furo[3,4-b]pyridine-7,3′-azetidine]-1′-yl]methyl]-6-methyl-morpholin-4-yl]-2-deuterio-quinoline-8-carbonitrile] | 0.032 | 13.5 | 40.5
C[C@@H]1CN(c2ccc(C#N)n3ncc(F)c23)C[C@H](CN2CC3(C2)OCc2cc(N4CC(C)(N)C4)ncc23)O1 [Example 24, 4-[(2S,6R)-2-[[6-(3-amino-3-methyl-azetidin-1-yl)spiro[1H-furo[3,4-c]pyridine-3,3′-azetidine]-1′-yl]methyl]-6-methyl-morpholin-4-yl]-3-fluoro-pyrazolo[1,5-a]pyridine-7-carbonitrile] | 0.086 | 21 | −0.5
[2H]c1ccc2c(N3C[C@H](CN4CC5(C4)OCc4cc(N6C[C@H]7NCCO[C@@H]7C6)ccc45)O[C@H](C)C3)ccc(C#N)c2n1 [Example 17, 5-[(2S,6R)-2-[[6-[(4aR,7aR)-3,4,4a,5,7,7a-hexahydro-2H-pyrrolo[3,4-b][1,4]oxazin-6-yl]spiro[1H-isobenzofuran-3,3′-azetidine]-1′-yl]methyl]-6-methyl-morpholin-4-yl]-2-deuterio-quinoline-8-carbonitrile] | 0.032 | 3.5 | 14
[2H]c1ccc2c(N3C[C@H](CN4CC5(C4)OCc4cc(N6CC(C)(N)C6)cnc45)O[C@H](C)C3)ccc(C#N)c2n1 [Example 21, 5-[(2S,6R)-2-[[3-(3-amino-3-methyl-azetidin-1-yl)spiro[5H-furo[3,4-b]pyridine-7,3′-azetidine]-1′-yl]methyl]-6-methyl-morpholin-4-yl]-2-deuterio-quinoline-8-carbonitrile] | 0.055 | 4.5 | 12.5
C[C@@H]1CN(c2ccc(C#N)n3nccc23)C[C@H](CN2CC3(C2)OCc2cc(N4CC5(CNCCO5)C4)ccc23)O1 [Example 7, 4-[(2R,6S)-2-methyl-6-[[6-(5-oxa-2,8-diazaspiro[3.5]nonan-2-yl)spiro[1H-isobenzofuran-3,3′-azetidine]-1′-yl]methyl]morpholin-4-yl]pyrazolo[1,5-a]pyridine-7-carbonitrile] | 0.068 | 0 | 16.5
C[C@@H]1CN(c2ccc(C#N)n3nccc23)C[C@H](CN2CC3(C2)OCc2cc(N4CC(N)C4)ccc23)O1 [Example 19, 4-[(2S,6R)-2-[[6-(3-aminoazetidin-1-yl)spiro[1H-isobenzofuran-3,3′-azetidine]-1′-yl]methyl]-6-methyl-morpholin-4-yl]pyrazolo[1,5-a]pyridine-7-carbonitrile] | 0.036 |  | 
C[C@@H]1CN(c2ccc(C#N)n3ncc(F)c23)C[C@H](CN2CC3(C2)OCc2cc(N4CC(C)(N)C4)ccc23)O1 [Example 1, 4-[(2S,6R)-2-[[6-(3-amino-3-methyl-azetidin-1-yl)spiro[1H-isobenzofuran-3,3′-azetidine]-1′-yl]methyl]-6-methyl-morpholin-4-yl]-3-fluoro-pyrazolo[1,5-a]pyridine-7-carbonitrile] | 0.131 |  | 
[2H]c1ccc2c(N3C[C@H](CN4CC5(C4)OCc4cc(N6C[C@@H](N)[C@H](OC)C6)ccc45)O[C@H](C)C3)ccc(C#N)c2n1 [Example 16, 5-[(2S,6R)-2-[[6-[(3R,4R)-3-amino-4-methoxy-pyrrolidin-1-yl]spiro[1H-isobenzofuran-3,3′-azetidine]-1′-yl]methyl]-6-methyl-morpholin-4-yl]-2-deuterio-quinoline-8-carbonitrile] | 0.032 |  | 
C[C@@H]1CN(c2ccc(C#N)n3ncc(F)c23)C[C@H](CN2CC3(C2)OCc2cc(N4CC[C@](C)(N)C4)ccc23)O1 [Example 5, 4-[(2S,6R)-2-[[6-[(3S)-3-amino-3-methyl-pyrrolidin-1-yl]spiro[1H-isobenzofuran-3,3′-azetidine]-1′-yl]methyl]-6-methyl-morpholin-4-yl]-3-fluoro-pyrazolo[1,5-a]pyridine-7-carbonitrile] | 0.094 |  | 

Source: US12421252B2, “Spiro (isobenzofuranazetidine) compounds for the treatment of autoimmune disease” (Hoffmann-La Roche Inc., priority 2020, dated 2025)
